Earlier results in patent US9181529B2, “Titration of differentiation medium components” (Cellular Dynamics International, Inc., priority 2010, dated 2015).

Columns and labels:
ROCK2 = details: ATP-competitive, read-out: IC50 ROCK1/ROCK2
[1] = system: pluripotent stem cell-derived cardiomyocytes

| Structure (SMILES) | chronotropic effect [1] | other results |
| --- | --- | --- |
| COc1ccc([C@@H]2Sc3ccccc3N(CCN(C)C)C(=O)[C@@H]2OC(C)=O)cc1 [diltiazem] |  | contractile activity [1]: inhibits contractile activity in a dose-dependent manner |
| CNC[C@H](O)c1cccc(O)c1 [phenylephrine] | positive chronotropic effect |  |
| CC(C)NCC(O)c1ccc(O)c(O)c1 (stereo not shown) [isoprenaline] | positive chronotropic effect |  |
